The subject of series [1] is C57Bl/6 mice subjected to myocardial infarction. Nature of the series: In vivo PET/CT of cardiac inflammation in infarcted mice. Particulars: tracer circulated 60 min, median. The procedure:
(§1) Myocardial infarction in mice was induced by permanent ligation of the left anterior descending (LAD) coronary artery of female C57Bl/6 mice (N = 18). Briefly, animals were anesthetized with xylazine (10 mg/kg) and ketamine (100 mg/kg) and intubated using an endotracheal intubation kit from Braintree Scientific (Braintree, MA). Left-sided thoracotomy and pericardial incision were performed. A 7-0 Silk suture was used to occlude the LAD. Incisions were closed with a 5-0 Silk suture. Infarcted animals were treated with 0.1 mg/kg of buprenorphine every 12 h and used 3 days after the surgery.
(§2) For the PET/CT experiments, mice were fasted for 12 h before radiotracer injection and anesthetized with xylazine (10 mg/kg) and ketamine (100 mg/kg) through intraperitoneal injection prior to radiotracer administration. Subsequently they were injected via the lateral tail vein with approximately 22.2 MBq of [^18F]F-FDG or 5.55 MBq of [^64Cu]Cu-DOTATATE. Tracers were allowed to circulate for 60 min. Immediately before imaging, mice were placed under 1% isoflurane (BaxterHealthcare, Deerfield, IL), and subsequently imaged on a high resolution (700 µm) Mediso nanoScan PET/CT scanner (Mediso, Budapest, Hungary). CT scan was acquired at 50 kVp and 300 ms exposure per projection. eXIA160 (Binitio, Ontario, Canada) was used as a contrast agent to improve imaging of the vasculature by intravenous administration of 100 μl per mouse 5 min prior to CT acquisition. PET acquisition time was 40 min. Reconstruction was performed using TeraTomo 3D reconstruction engine, for 8 iterations and 6 subsets per iteration for both tracers. The voxel size was isotropic at 0.3 mm. Immediately after the PET/CT scan, animals were euthanized for ex vivo assays.
(§3) Using OsiriX v5.6 software (OsiriX Foundation, Geneva, Switzerland), regions of interest (ROIs) were drawn to determine organ radioactivity concentration. In mice, for healthy and infarcted myocardium, ROIs were traced manually in the apex of the heart in the axial view. For remote myocardium, analysis was performed in myocardium 180° from the infarcted zone. In the mice aorta, sequential ROIs were drawn in the ascending aorta based on consecutive tomographic (CT) slices beginning from the root up to the brachiocephalic branch, merging point with the aortic arch. Voxel counts were converted to maximum standardized uptake values (SUVmax). In rabbits, PET images were fused with time-of-flight bright blood MRI angiography and ROIs were manually drawn on the infrarenal abdominal aorta in TOF images. The slice-by-slice maximum standard uptake values (SUVmax) were averaged across the whole aorta. […]

The subject of series [2] is Apoe^−/− atherosclerotic mice. Nature of the series: In vivo PET/CT of vascular inflammation in atherosclerotic mice. Particulars: tracer circulated 60 min, median, N = 4. The procedure:
(§4) Animals were housed under a constant room temperature at 25 ± 2 °C and 50 ± 5% humidity with a 12-h daylight period and 12-h darkness period, with free access to water. For the mouse atherosclerosis model, 8-weeks old female Apoe^−/− mice (N = 51) were purchased from Jackson Laboratories (Bar Harbor, ME) and, after a 48 h acclimatization period, were fed a Western Diet (42% Kcal from fat TD88137, Envigo, Huntingdon, UK) for 12 weeks. 16–20 weeks old female C57Bl/6 controls (N = 67) were kept on regular chow diet. The myocardial infarction group consisted 16–20 weeks old female C57Bl/6 mice (N = 18) purchased from Jackson Laboratories and subjected to ligation of the left anterior descending artery, as previously described.
as §2, §3

The conditions of series [3]: mice; cited from earlier work. From the text: This feature is important when performing in vivo imaging and especially in the vasculature, whose signal can be easily contaminated by the blood pool because of partial volume errors. […] We further used the combination of in ...
Series [4] can be described thus: In vivo PET/CT of cardiac inflammation in infarcted mice. As to conditions: female, mouse, heart, iv, 5.55 MBq, total radioactivity, healthy C57Bl/6 mice, tracer circulated 60 min, median, N = 4, read-out: SUVmax heart of control animals. As for the experimental part:
as §1, §2, §3

Series [5] can be described thus: In vivo PET/CT of vascular inflammation in atherosclerotic mice. Particulars: female, mouse, ascending aorta, iv, 5.55 MBq, total radioactivity, tracer circulated 60 min, median, N = 4, read-out: SUVmax ascending aorta. The procedure:
as §4, §2, §3

The nature of series [6]: [^68Ga]Ga-DOTATATE distribution in blood fractions (plasma vs cells). In kind it is in vivo, New Zealand White rabbits. Particulars: control (N = 2) and athero4mo (N = 3) rabbits. The procedure: Adopting a translational approach, the rabbit studies were performed with the [^68Ga]Ga-labeled tracer, which is already being used in the clinic. [^68Ga]Ga-DOTATATE was purchased from Advanced Accelerator Applications (AAA, Millburn, NJ, USA). To determine its pharmacokinetics, three atherosclerotic rabbits and two healthy controls were injected with approximately 190 MBq of [^68Ga]Ga-DOTATATE. Venous blood was sampled at 1, 5, 10, 15, 20, 30, 60, 120, 180, 240 and 300 min after injection through the ear vein. Samples were weighed and gamma counted. Blood half-life data were fitted using a two-phase decay non-linear regression using GraphPad Prism v8.4.3 (Supplementary Table S1). To investigate the tracer blood distribution, blood samples were centrifuged at 2000 g for 15 min at 4 °C to determine the radioactivity concentration in the plasma and cellular fractions. To analyze [^68Ga]Ga-DOTATATE biodistribution, all rabbits were euthanized after the last imaging time-point using an injection of pentobarbital 100 mg/kg and exsanguination of the portal vein. Rabbits were extensively perfused with 1000 mL of saline. Following, tissues (blood, heart, aorta, liver, kidney, skeletal muscle, small and large intestine, fat, stomach, pancreas and bladder) were harvested, weighed and gamma counted.

Where [7] appears, read: C57Bl/6 mice 3 days after LAD ligation, N = 4 ([^64Cu]Cu-DOTATATE), N = 6 ([^18F]F-FDG).
The mark [8] stands for this setting: Apoe^−/− mice 12 weeks on Western Diet.

As for `OC[C@H]1OC(O)[C@H]([18F])[C@@H](O)[C@@H]1O` (stereo partly shown) [[^18F]F-FDG, [^18F]F-fluorodeoxyglucose], in series [1] (setting [7]), the SUVmax infarcted myocardium turned out to be 4.2 and the “SUVmax remote (non-infarcted) myocardium” value amounted to 2.1. Besides, the “SUVmax heart of control animals” value in series [1] (healthy C57Bl/6 mice, N = 4) came to 3.4. The molecule also showed an SUVmax ascending aorta in series [2] (setting [8]) of 1.2. In series [2] (healthy C57Bl/6 control mice), this molecule registered an SUVmax ascending aorta of 1.7. Besides, the blood half-life in series [3] is 5.1 min.

Take `C[C@@H](O)[C@H](NC(=O)[C@@H]1CSSC[C@H](NC(=O)[C@@H](Cc2ccccc2)NC(=O)CN2CCN(CC(=O)O)CCN(CC(=O)O)CCN(CC(=O)O)CC2)C(=O)N[C@@H](Cc2ccc(O)cc2)C(=O)N[C@H](Cc2c[nH]c3ccccc23)C(=O)N[C@@H](CCCCN)C(=O)N[C@@H]([C@@H](C)O)C(=O)N1)C(=O)O` [[^64Cu]Cu-DOTATATE, metal not drawn]: the results for the SUV at 1 h in series [4], in series [5] (setting [8]) and in series [5] (healthy C57Bl/6 control mice) were 0.6 SUV, 1.1 SUV and 0.5 SUV, respectively.

Regarding `C[C@@H](O)[C@H](NC(=O)[C@@H]1CSSC[C@H](NC(=O)[C@@H](Cc2ccccc2)NC(=O)CN2CCN(CC(=O)O)CCN(CC(=O)O)CCN(CC(=O)O)CC2)C(=O)N[C@@H](Cc2ccc(O)cc2)C(=O)N[C@H](Cc2c[nH]c3ccccc23)C(=O)N[C@@H](CCCCN)C(=O)N[C@@H]([C@@H](C)O)C(=O)N1)C(=O)O` [[^68Ga]Ga-DOTATATE, metal not drawn], the “distribution between plasma and cells” value in series [6] is “detected in plasma, rather than cells”.
